EC50 and T/C data for 6 molecules are collected here from ChEMBL document CHEMBL1158914, “Antitumor agents, 115. Seselidiol, a new cytotoxic polyacetylene from Seseli mairei” (1990).

As usually defined, the T/C is the ratio of treated to control.

Each structure is given as a SMILES string. In brackets after ≈: the same amount, converted by molar mass.

Type in all cases: functional
One assay deals with KB. As to the kind of experiment: Cytotoxicity against human KB cells. As to conditions: read-out: ED50 (the source's name).
A further assay deals with HCT-8. As to the kind of experiment: Cytotoxicity against human HCT8 cells. As to conditions: read-out: ED50 (the source's name).
Assay [1] deals with P388. As to the kind of experiment: Cytotoxicity against mouse P388 cells. The settings on record: read-out: ED50 (the source's name).
The test system of the next assay is L1210. Description: Cytotoxicity against mouse L1210 cells. The settings on record: read-out: ED50 (the source's name).
Assay [2] relates to P388. Description: Antileukemic activity against mouse P388 cells xenografted in mouse at 3 mg/kg after 3 days relative to control.

For the molecule `C=CC(C#CC#C/C=C\C(CCCCCCC)OC(C)=O)OC(C)=O` (stereo not drawn) [SESELIDIOL DIACETATE], the EC50 with KB is 4 µg/mL; with HCT-8, 7.8 µg/mL; in the assay with P388 [1] it was 5.2 µg/mL; in the assay with L1210, 5.5 µg/mL.
For the molecule `COc1cc([C@@H]2c3cc4c(cc3[C@@H](O[C@@H]3O[C@@H]5CO[C@@H](C)O[C@H]5[C@H](O)[C@H]3O)[C@H]3COC(=O)[C@H]23)OCO4)cc(OC)c1O` [ETOPOSIDE], the figures for the EC50 in the assay on KB, with P388 [1] and in the assay with L1210 were 0.1 µg/mL (≈ 0.17 µM), 2.6 µg/mL (≈ 4.42 µM) and 1.6 µg/mL (≈ 2.72 µM), respectively.
`C=CC(O)C#CC#C/C=C\C(O)CCCCCCC` (stereo not drawn) [SESELIDIOL]: the EC50 stood at 1 µg/mL (≈ 3.84 µM) with KB, 10 µg/mL (≈ 38.4 µM) with HCT-8, 4.9 µg/mL (≈ 18.8 µM) in the assay with P388 [1] and 3.3 µg/mL (≈ 12.7 µM) with L1210.
Regarding `COc1cccc2c1C(=O)c1c(O)c3c(c(O)c1C2=O)C[C@@](O)(C(=O)CO)C[C@@H]3O[C@H]1C[C@H](N)[C@H](O)[C@H](C)O1.Cl` [DOXORUBICIN HYDROCHLORIDE], the EC50 with HCT-8 amounted to 0.3 µg/mL.
As to `C=CC(=O)C#CC#C/C=C\C(=O)CCCCCCC`, the EC50 with KB is over 10 µg/mL; with HCT-8, 3.7 µg/mL (≈ 14.4 µM); in the assay with P388 [1], over 10 µg/mL; with L1210, over 10 µg/mL.
Consider `CCC[C@@H](O)/C=C/C=C/C=C/C#CC#CCCCO` [CICUTOXIN], for which the EC50 in the assay with KB was determined as 2 µg/mL (≈ 7.74 µM). This molecule displayed a T/C with P388 [2] of 165%.
